Numbered stars: 1 amine (or outer) side, 2 acyl side, 3 side chain; on linkers, the order of the positions; unused ones are H or OH. Bridge positions count the residues as written; N and C are the ends. Square brackets hold non-standard residues; d marks the D form. Peptide text beside a SMILES is read from it. I, II: the chains in the order shown. Actinocin(9to1) = Cc1c2oc3c(C)ccc(C(=O)[*:1])c3nc-2c(C(=O)[*:2])c(N)c1=O; NMeV = CN[C@H](C(=O)O)C(C)C; Sar = CNCC(=O)O

This is an account of results in patent US7015190B1, “Method for enhancing long-term memory in a subject and uses thereof” (The Trustees of Columbia University in the City of New York, priority 1996, dated 2006).

Data set [1] relates to ApCREB-2 mRNA. In words: Steady state level of ApCREB-2 mRNA after exposure to agents. More on the design: species or system Aplysia. Conditions: following exposure to the agent. As to the method: RNA was isolated from cultures of approximately 200 Aplysia sensory neurons that had been exposed to none, one, or five pulses of 5-HT (10 μM) as indicated. As a control, one half of the RNA was processed omitting reverse transcriptase from the reaction (—RT).
(FIG. 3B) Northern blot analysis of RNA isolated from CNS of Aplysia exposed to 5-HT in vivo. CNSs were dissected from anesthetized animals after exposing them in vivo to 5-HT (50 μM) for the time indicated above each lane. Eight μg of total RNA from each timepoint was separated in a 1% agarose gel, blotted and consecutively hybridized with probes specific for ApCREB-2, ApCREB-1, ApC/EBP, and ribosomal protein S4 transcripts.
Cultures of approximately 200 Aplysia sensory neurons, established by the dissociation of the pleural sensory cluster in a single dish, were exposed to 10 μM 5-HT for 5 min once or five times separated by 20 min. After washing with ASW, cells were lysed by 100 μl of the guanidium thiocyanate solution and the RNA was isolated. For RT-PCR, the isolated RNA was treated with RNAse free DNAse (Boehringer), reextracted as above and processed using RT-PCR kit (Boehringer). The sequence of the primers used were […]

For data set [2], the system named is CRE-mediated transcription (5xCRE-VIP-lacZ reporter). In words: 5xCRE-VIP-lacZ reporter, transient cotransfection of F9 cells. In kind it is cell-based, mouse. The procedure:
(FIG. 5B) Transient transfections of F9 cells using a 5xCRE-VIP-lacZ reporter plasmid. The indicated expression constructs were cotransfected with 5xCRE-VIP-lacZ reporter as in (A), except that relative (-galactosidase activity was calculated relative to 5xCRE-VIP-lacZ reporter and normalized to the luciferase activity of cotransfected pRSV-luc. ApCREB-2 and ApCREB-1 are activators of 5xCRE-VIP-lacZ reporter, but become mutual repressors when coexpressed.
(§1) Undifferentiated mouse F9 cells were transfected using Lipofectamine (BRL). The β-galactosidase and luciferase activities were quantitated by chemiluminescence (Galacton Plus, Tropix, and a Luciferase assay kit, Promega) in a Turner 20e luminometer.

For data set [3], the system named is Aplysia sensory-motor neuron cocultures. The data set can be described thus: Short- and long-term synaptic facilitation (EPSP amplitude in motor neuron L7) in sensory-motor neuron cocultures. In kind it is cell-based. As to the method:
Aplysia sensory neurons from the pleural ganglia of adult animals (80–100 g) were cocultured with the motor neuron L7 from juvenile animals (0.5–4 g). After 4–5 days in culture, the strength of the synaptic connections between the sensory and motor cell was measured electrophysiologically, as previously described (Montarolo et al. 1986, Alberini et al., 1994). The motor neuron was impaled with a glass microelectrode filled with 2.5M KCl (10 MΩ (resistance) and its membrane potential was held at 30 mV below its resting value. The EPSP was evoked by extracellular stimulation of the sensory neuron and the data were stored on a 4 channel tape recorder.
Two protocols were used to induce synaptic facilitation in Aplysia cocultures. In the first, after testing the initial EPSP amplitude, 10 μM 5-HT was applied for 5 min (single pulse). […] The amount of facilitation was calculated as the percentage change in EPSP amplitude recorded before and at the different time points after the single 5-HT application. In the other group of experiments, long-term facilitation was evoked by five exposures to 10 μM 5-HT for 5 min each, at 20 min intervals (5 pulses). The facilitation was calculated as the percentage change in EPSP amplitude 24 hr after the five pulses of 5-HT. The antisera, adjusted to the osmolarity of Aplysia neurons (Alberini et al., 1994), were pressure injected into the sensory neurons 1 hr before 5-HT treatment. Where indicated, anisomycin (10 μM) or actinomycin D (50 μg/ml) was added to the cocultures 1 hr before the 5-HT pulse and was present continuously during the 5-HT treatment. All data are presented as mean percentage change ±SEM in the EPSP amplitude measured after treatment, as compared with its initial pretreatment amplitude. A one way analysis of variance and Newman Keuls multiple range test were used to determine the significance of the EPSP changes.

Data set [4] concerns ATF4. In words: Amount of ATF4 during neuronal differentiation of PC12 cells. Conditions: PC12 cells exposed during differentiation. In kind it is cell-based, rat. The source says:
The above may be tested in a cellular model of neuronal differentiation, specifically the rat pheochromocytoma cells PC12. The cell line is widely used as a model for neuronal differentiation and also for apoptosis, which is programmed neuronal cell death. PC12 cells are undifferentiated in culture and can be differentiated in vitro by exposing them to nerve growth factor (NGF) and cAMP analogs. Withdrawal of these compounds from the cell culture conditions leads to programmed cell death.
It has been investigated whether ATF4 plays a role in the neuronal differentiation of PC12 cells. […] In addition, overexpression of ATF4 in PC12 cells by transfecting expression constructs with constitutive CMV promoter and ATF4 cDNA prevents the PC12 cells from undergoing neuronal differentiation. […] It is important to also study the role of ATF4 in apoptosis. Since both differentiation and cell death in PC12 cell culture involve similar signal transduction pathways, it is reasonable that ATF4 may be involved in this process as well.

In data set [5] the test system is Aplysia sensory-motor neuron cocultures. In words: Number of fluorescent sensory neuron varicosities contacting the motor neuron. Conditions: 24 hr after one pulse of 5-HT; antiserum injected 1 hr before training. In kind it is cell-based. The procedure: Individual sensory neuron were cocultivated with a single motor cell. Glass micropipettes were filled with a 6% sterile-filtered solution of the fluorescent dye 5(6)-carboxyfluorescein (chromatographically purified; Molecular Probes) in 0.44 M KOH (pH 7.0, resistance 50-90 M. The dye was injected into the sensory neurons immediately after measuring the initial EPSP amplitude by 0.4–0.6 nA hyperpolarizing current pulses (500 ms duration at 1 Hz) for 4–6 min, phase contrast and fluorescence images of the same view areas were taken both before and 24 hr after treatment as previously described (Glanzman et al., 1990; Bailey et al., 1992).
Varicosities were identified according to criteria previously established for sensory neurons in vivo (Bailey et al., 1979; Bailey and Chen, 1983, 1988), and in vitro (Glanzman et al., 1990; Bailey et al., 1992) and included all slightly elongated spheres of approximately 2–3 μm or more in diameter.

Data set [6] relates to UASg-lacZ gene. The data set can be described thus: GAL4 DNA binding domain activation assay in yeast. In kind it is cell-based, S. cerevisiae. The settings on record: fused to the GAL4 DNA binding domain, reporter UASg-lacZ. The procedure: The Aplysia CNS cDNA library was synthesized in pGAD10 using random hexamers and the BRL cDNA synthesis kit. Two libraries constructed from size fractionated cDNAs with average inserts >2 kb (5×10^6 independent clones each) were used in the two-hybrid screening as described previously (Fields and Song., 1989, Durfee et al., 1993, Ausubel et al., 1994). The transcriptional activation properties of ApCREB-2 and its interaction with other proteins in the two-hybrid system was analyzed using the full length ApCREB-2 and its deletion mutants subcloned in pAS1 and pACT2 vectors. The transcriptional activity of ApCREB-2/GAL4 DNA binding domain fusions was determined as decribed (Ma and Ptashne, 1987; Durfee et al., 1993). To analyze the protein interactions, ApCREB-2, ApC/EBP, rat CREB, c-fos and deletion mutants of these proteins in pAS1 and pACT2 were cotransformed into S. cerevisiae Y190, and the expressed β-galactosidase quantified as above.

In data set [7] the test system is CRE-mediated transcription (pGL3-CRE reporter). In words: pGL3-CRE luciferase reporter, transient cotransfection of F9 cells. In kind it is cell-based, mouse. The procedure: (FIG. 5A) Mouse F9 cells were transiently cotransfected with 1 μg of pGL3-CRE reporter plasmid along with 1 μg of each of the indicated expression plasmids: ApCREB-2=pRcRSV-ApCREB-2, ApCREB-1=pRcRSV-ApCREB-1, PKA=pRcRSV-PKA. All transfections were adjusted to 4 μg total DNA with pRcRSV vector DNA.
as §1

Setting [8] is: expression plasmid alone, with PKA.
The mark [9] stands for this setting: expression plasmid alone, without PKA.
The mark [10] stands for this setting: 2 hr after one pulse of 5-HT paired with ApCREB-2 antiserum injection, inhibitor present during 5-HT.
The mark [11] stands for this setting: 24 hr after one pulse of 5-HT paired with ApCREB-2 antiserum injection, inhibitor present during 5-HT.

For the molecule `Nc1ncnc2c1ncn2[C@@H]1O[C@@H]2CO[P@@](O)(=S)O[C@H]2[C@H]1O` [Rp-cAMPS], the “level of ApCREB-2 mRNA” value in data set [1] is “does not change”.
As to “rat CREB-1: wild type rat CREB expressed from pRcRSV-CREB341”, the relative activation is on record as 68.82±7.3 in data set [2] (setting [8]) and 7.65±0.65 in data set [2] (setting [9]).
As to `C=C1[C@@H](O)[C@@H]2O[C@]3(CC[C@H](/C=C/[C@@H](C)[C@@H]4CC(C)=C[C@@]5(O[C@H](C[C@@](C)(O)C(=O)O)CC[C@H]5O)O4)O3)CC[C@H]2O[C@@H]1[C@@H](O)C[C@H](C)[C@H]1O[C@@]2(CCCCO2)CC[C@H]1C` [okadaic acid], in data set [1], the “level of ApCREB-2 mRNA” value was “does not change”.
Turning to `CC(C)Cn1c(=O)n(C)c(=O)c2[nH]cnc21` [IBMX], in data set [1], the “level of ApCREB-2 mRNA” value is recorded as “does not change”.
Take `Cc1c2oc3c(C)ccc(C(=O)N[C@@H]4C(=O)N[C@H](C(C)C)C(=O)N5CCC[C@H]5C(=O)N(C)CC(=O)N(C)[C@@H](C(C)C)C(=O)O[C@@H]4C)c3nc-2c(C(=O)N[C@@H]2C(=O)N[C@H](C(C)C)C(=O)N3CCC[C@H]3C(=O)N(C)CC(=O)N(C)[C@@H](C(C)C)C(=O)O[C@@H]2C)c(N)c1=O` [actinomycin D] (I: T[dV]P[Sar][NMeV] / II: T[dV]P[Sar][NMeV]; ester I:1-I:C, II:1-II:C; linker I:N-II:N via Actinocin(9to1)): the “percent change in EPSP amplitude” value in data set [3] (setting [10]) is on record as “+10.12%”; in data set [3] (setting [11]), 7.87%.
With `COc1ccc(C[C@H]2NC[C@H](O)[C@H]2OC(C)=O)cc1` [anisomycin], the “level of ApCREB-2 mRNA” value in data set [1] was “does not change”. The “percent change in EPSP amplitude” value in data set [3] (setting [10]) is on record as “+19.17%”; in data set [3] (setting [11]) it was “+3.67%”.
With `CNc1ccc2oc(C[C@H]3O[C@@]4(CC[C@H]3C)O[C@H]([C@H](C)C(=O)c3ccc[nH]3)[C@H](C)C[C@H]4C)nc2c1C(=O)O` [A23187], in data set [1], the “level of ApCREB-2 mRNA” value is listed as “does not change”.
Consider `Nc1ncnc2c1ncn2[C@@H]1O[C@@H]2COP(O)(=S)O[C@H]2[C@H]1O` (some centres unmarked) [Sp-cAMPS], for which the “level of ApCREB-2 mRNA” value in data set [1] is “does not change”.
NGF: nerve growth factor: in data set [4], the “amount of ATF4” value is “dramatically reduced”.
As for `NCCc1c[nH]c2ccc(O)cc12` [5-HT, serotonin], in data set [1], the “level of ApCREB-2 mRNA” value is “not affected”. Also, the “percent change in EPSP amplitude” value in data set [3] (10 min after one pulse of 5-HT) is on record as 13.6%; in data set [3] (30 min after one pulse of 5-HT, sera injected 1 hr before), 2.83%; in data set [3] (2 hr after one pulse of 5-HT, sera injected 1 hr before), −1%. In addition, in data set [3] (massed training: 25 minutes of continuous exposure to 5-HT), the “facilitation of the synaptic potential” value was “+39%”. Moreover, the “duration of short-term facilitation” value in data set [3] (single pulse of 5-HT, no injection) is listed as “about 10 min”. For the same molecule, in data set [5], the “percent change in the number of sensory neuron varicosities” value is reported as −10%.

B1: ApCREB-2: Aplysia bZIP transcription factor, 378 amino acids (SEQ ID NO 1), expressed from pRcRSV-ApCREB-2 (protein)
chain: MELDLWSEDFQLAREWGLEMPVVQTDGQFGDLKSTSRHGGDESLSLQPQGATLKLEPFEEDVLGAEWMESSDLGSFLDALGDNHERLHPFESNLLEFTSLITPDDSTVSKDILSSTLQFPTQPVNIPLYASHGAEDFSAETEFENHLSPPDSPEQVAPVINLEPVELTASHMTVISPDGLLGGMELASESLTFTELDFVNFNDSAVGSIGGAEELLGSPLSVDDVESTISFSGPSSPETSQSSIIESSPELYKVISTSSIDASKRFSPYSRSSKSKQSVKTSDAKAPRKTRTPAQPVPEHVIMEHLDKKDRKKLQNKNAAIRYRMKKKGEAQGIKGEEQELEELNTKLKTKVDDLQREIKYMKNLMEDVCKAKGIQLKM
Turning to B1, in data set [6], the “relative activity as compared to wild type GAL4” value is recorded as 82%. Further, the relative activation in data set [2] (cotransfected with ApCREB-1, absence of PKA) is 1.84±0.25; in data set [2] (cotransfected with ApCREB-1, presence of PKA), 4.12±0.53; in data set [2] (cotransfected with rat CREB-1, with PKA), 5.15±0.62; in data set [2] (cotransfected with rat CREB-1, without PKA) it was 2.27±0.3; in data set [2] (setting [8]), 43.12±5.1; in data set [2] (setting [9]) it was 2.46±0.2. The relative activation was determined as 0.96±0.15 in data set [7] (cotransfected with ApCREB-1, absence of PKA catalytic subunit) and 1.64±0.20 in data set [7] (cotransfected with ApCREB-1, presence of PKA catalytic subunit).
